Experiment: xn = mol fraction of the nth substance listed

C=CC(=O)OCCCC + CCOCCOCCO
viscosity [mPa·s], 101 kPa
Details	293.15 K	298.15 K	303.15 K	308.15 K	313.15 K	318.15 K
x2 = 0.0702	0.966	0.899	0.837	0.782	0.733	0.687
x2 = 0.1444	1.059	0.977	0.904	0.839	0.783	0.733
x2 = 0.2183	1.167	1.07	0.986	0.913	0.849	0.791
x2 = 0.2855	1.287	1.175	1.078	0.994	0.92	0.854
x2 = 0.3658	1.453	1.332	1.207	1.108	1.022	0.947
x2 = 0.4403	1.637	1.499	1.346	1.233	1.127	1.039
x2 = 0.5027	1.819	1.649	1.477	1.343	1.227	1.126
x2 = 0.569	2.028	1.817	1.646	1.488	1.351	1.236
x2 = 0.6545	2.363	2.103	1.884	1.697	1.531	1.393
x2 = 0.7189	2.654	2.336	2.079	1.871	1.672	1.527
x2 = 0.787	2.982	2.609	2.295	2.069	1.842	1.681
x2 = 0.8385	3.27	2.85	2.481	2.243	1.992	1.816
x2 = 0.9319	3.843	3.312	2.873	2.586	2.28	2.07

CCCC=O + CCCCO
viscosity [mPa·s], 100 kPa
Details	294.53 K	294.63 K	319.13 K	320.13 K
x2 = 0.59	–	5.78	2.552	–
x2 = 0.9	5.49	–	–	2.98

Cc1ccccc1O + c1ccncc1
viscosity [mPa·s], 101 kPa
Details	x1 = 0.09109	x1 = 0.1923	x1 = 0.2702	x1 = 0.3823	x1 = 0.4812	x1 = 0.5958	x1 = 0.7186	x1 = 0.8145	x1 = 0.8918
293.15 K	1.176	1.556	1.983	2.962	4.455	6.845	9.26	10.04	10.01
303.15 K	1.022	1.35	1.724	2.56	3.625	4.935	6.23	6.565	6.45
313.15 K	0.886	1.148	1.436	2.045	2.75	3.575	4.29	4.415	4.325

C=CC(=O)OC + CCCCCCCCCC
viscosity [mPa·s], 100 kPa
Details	x1 = 0.1092	x1 = 0.2047	x1 = 0.3019	x1 = 0.4034	x1 = 0.5015	x1 = 0.5969	x1 = 0.6987	x1 = 0.7998	x1 = 0.8966
303.15 K	0.733	0.683	0.638	0.595	0.561	0.532	0.506	0.483	0.462
308.15 K	0.668	0.625	0.585	0.548	0.519	0.495	0.474	0.456	0.437
313.15 K	0.644	0.604	0.566	0.53	0.501	0.478	0.457	0.438	0.42

Source: the CheMixHub viscosity set
